The text below walks through data of PMC3154929, “Phosphatase-Coupled Universal Kinase Assay and Kinetics for First-Order-Rate Coupling Reaction” (PLoS ONE, 2011).

The assay has as its target T1, human glucokinase (GCK) (Homo sapiens, UniProt P35557).
T1 construct: V16 to Q465, N-terminal 6xHis tag, expressed in E. coli
T1 sequence (P35557 16-465): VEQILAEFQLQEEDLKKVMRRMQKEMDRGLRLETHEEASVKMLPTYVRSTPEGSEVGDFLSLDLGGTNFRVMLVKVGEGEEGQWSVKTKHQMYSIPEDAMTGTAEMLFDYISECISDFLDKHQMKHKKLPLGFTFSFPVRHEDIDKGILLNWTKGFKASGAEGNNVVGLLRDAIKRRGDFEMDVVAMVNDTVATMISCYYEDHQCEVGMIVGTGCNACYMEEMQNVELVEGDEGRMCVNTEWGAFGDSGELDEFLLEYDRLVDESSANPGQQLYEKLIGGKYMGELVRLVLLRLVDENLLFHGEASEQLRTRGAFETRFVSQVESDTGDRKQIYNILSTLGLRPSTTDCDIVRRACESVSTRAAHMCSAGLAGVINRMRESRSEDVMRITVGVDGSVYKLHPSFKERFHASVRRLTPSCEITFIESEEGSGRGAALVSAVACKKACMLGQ
Put plainly: CD39L2-coupled malachite green phosphate assay, OD620. To be noted: 0.12 mM ATP, 10 mM MgCl2, 10 mM CaCl2, 150 mM NaCl, 25 mM Tris pH 7.5, room temperature. Format: biochemical.

In general, Km refers to the concentration of substrate that gives half-maximal velocity. On to `OC[C@H]1OC(O)[C@H](O)[C@@H](O)[C@@H]1O` (stereo partly shown) [glucose], for which the Km is 7.23 ± 1.44 mM.
